Consider nine molecules from patent publication US9580444B2, “Polycyclic pyrazolinone derivative and herbicide comprising same as effective component thereof” (priority 2013, dated 2017).

Holding throughout (type): in vivo
The test system of series [1] is Amaranthus viridis (green amaranthus). Nature of the series: Test Example-2: herbicidal effect by a soil treatment before weeds are generated under upland field conditions. The conditions noted are these: application amount 500 g a.i/ha, soil spray treatment before weeds are generated, about 21 days after the treatment, score 0 to 5. An excerpt: (§1) Using the formulation prepared according to the methods described above, the herbicidal effect of the bicyclic pyrazolinone derivative of the invention according to the methods shown in Test Examples below was examined. The herbicidal effect with respect to the test weeds or the phytotoxicity with respect to the test crops was examined according to the following criteria, and evaluated in six stage scores of 0 to 5. A vat having an area of 81 cm^2 and a depth of 3.5 cm was filled with upland soil, then, seeds of Amaranthus viridis (green amaranthus), Chenopodium album (common lambsquarters), and corn were seeded thereto, and the seeds were covered with soil of about 0.5 cm. Next day, a wettable powder or an emulsifiable concentrate of the compound of the present invention prepared according to Formulation Example was diluted, and a spray treatment was uniformly performed on the covered oil so as to be a predetermined dosage. The herbicidal effect with respect to the test weeds and the phytotoxicity with respect to corn about 21 days after the treatment were evaluated according to the evaluation criteria in six stages of 0 to 5 described above.

For series [2], the system named is Chenopodium album (common lambsquarters). The description is as above. As to conditions: application amount 500 g a.i/ha, soil spray treatment before weeds are generated, about 21 days after the treatment, score 0 to 5.
Text: as §1

The subject of series [3] is corn. Nature of the series: Test Example-2: phytotoxicity by a soil treatment before weeds are generated under upland field conditions. As to conditions: application amount 500 g a.i/ha, soil spray treatment before weeds are generated, about 21 days after the treatment, score 0 to 5.
Text: as §1

For series [4], the system named is corn. The experiment in a line: Test Example-4: phytotoxicity by a foliage treatment after weeds are generated under upland field conditions. As to conditions: 500 g a.i/ha, foliage treatment after emergence, about 14 days after treatment, score 0-5. The gist of the method:
(§2)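 Sown seeds, under about 0.5 cm of soil cover in upland soil, grew for 14 days before compound application. A wettable powder or emulsifiable concentrate, diluted to a predetermined dosage, was sprayed over foliage in 4000 L/ha water, with scoring on a 0–5 scale after roughly 14 days.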

The test system of series [5] is Eleocharis acicularis (needle spikerush). Nature of the series: Test Example-1: herbicidal effect by a treatment before weeds are generated under submerged conditions. As to conditions: 500 g a.i/ha, pre-emergence treatment, about 15 days after treatment, score 0-5. Summed up:
(§3)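 Treatment is made before weed emergence: seeds sit in puddled, submerged paddy soil and receive the diluted wettable powder or emulsifiable concentrate into the water at a fixed dosage. Rating on a 0–5 scale follows after around 15 days.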

In series [6] the test system is other annual broad leaf weeds (Lindernia procumbens, Rotala indica, Elatine triandra). The description is as above. The conditions noted are these: 500 g a.i/ha, pre-emergence treatment, about 15 days after treatment, score 0-5. Summed up: as §3
In series [7] the test system is Cyperus difformis (smallflower umbrella plant). Described as above. The conditions noted are these: 500 g a.i/ha, pre-emergence treatment, about 15 days after treatment, score 0-5. The gist of the method:
as §3

The test system of series [8] is Echinochloa oryzicola (barnyard grass). The series is described as above. The conditions noted are these: 500 g a.i/ha, pre-emergence treatment, about 15 days after treatment, score 0-5. The gist of the method: as §3
Series [9] relates to Monochoria vaginalis (monochoria). The description is as above. The conditions noted are these: 500 g a.i/ha, pre-emergence treatment, about 15 days after treatment, score 0-5. The gist of the method:
as §3

For series [10], the system named is Scirpus juncoides (bulrush). The description is as above. As to conditions: 500 g a.i/ha, pre-emergence treatment, about 15 days after treatment, score 0-5. The gist of the method:
as §3

For series [11], the system named is Abutilon theophrasti (velvetleaf). The experiment in a line: Test Example-4: herbicidal effect by a foliage treatment after weeds are generated under upland field conditions. The conditions noted are these: 500 g a.i/ha, foliage treatment after emergence, about 14 days after treatment, score 0-5. The gist of the method:
as §2

For series [12], the system named is Amaranthus viridis (green amaranthus). Described as above. The conditions noted are these: 500 g a.i/ha, foliage treatment after emergence, about 14 days after treatment, score 0-5. Summed up: as §2
Series [13] has as its system Chenopodium album (common lambsquarters). Described as above. The conditions noted are these: 500 g a.i/ha, foliage treatment after emergence, about 14 days after treatment, score 0-5. The gist of the method: as §2

Regarding `C#CCOc1cc(-c2c(Cl)n3n(c2=O)CCCC3)c(F)cc1[N+](=O)[O-]` [Example 1-418], the “Herbicidal effect Amaranthus viridis” value in [1] is on record as 5 (Herbicidal effect/phytotoxicity was 90% or greater). In addition, the “Herbicidal effect Chenopodium album” value in series [2] is recorded as 5 (Herbicidal effect/phytotoxicity was 90% or greater). For the same molecule, the “Phytotoxicity Corn” value in [3] is 0 (Herbicidal effect/phytotoxicity was 0% to 10%).
For `Cc1ccc(Oc2cc(-c3c(Cl)n4n(c3=O)CCCC4)c(F)cc2Cl)c(O)c1` [Compound 3-40], the “Herbicidal effect Amaranthus viridis” value in [1] is reported as 5 (Herbicidal effect/phytotoxicity was 90% or greater). Besides, the “Herbicidal effect Chenopodium album” value in series [2] was 5 (Herbicidal effect/phytotoxicity was 90% or greater). Moreover, the “Phytotoxicity Corn” value in [3] is on record as 0 (Herbicidal effect/phytotoxicity was 0% to 10%).
Turning to `CC#CCOc1cc(-c2c(Cl)n3n(c2=O)CCCC3)c(F)cc1Cl` [Example 1-246], the “Phytotoxicity Corn” value in [4] is listed as 1 (Herbicidal effect/phytotoxicity was 10% to 30%). The “Herbicidal effect Eleocharis acicularis” value in series [5] is 5 (Herbicidal effect/phytotoxicity was 90% or greater). In addition, the “Herbicidal effect Broadleaf weed” value in [6] was 5 (Herbicidal effect/phytotoxicity was 90% or greater). Besides, in series [7], the “Herbicidal effect Cyperus difformis” value is on record as 5 (Herbicidal effect/phytotoxicity was 90% or greater). Moreover, the “Herbicidal effect Echinochloa oryzicola” value in [8] is on record as 5 (Herbicidal effect/phytotoxicity was 90% or greater). Also, the “Herbicidal effect Monochoria vaginalis” value in series [9] is listed as 5 (Herbicidal effect/phytotoxicity was 90% or greater). The “Herbicidal effect Scirpus juncoides” value in series [10] was 5 (Herbicidal effect/phytotoxicity was 90% or greater). Also, the “Herbicidal effect Abutilon theophrast” value in [11] is 5 (Herbicidal effect/phytotoxicity was 90% or greater). Also, the “Herbicidal effect Amaranthus viridis” value in series [12] is recorded as 5 (Herbicidal effect/phytotoxicity was 90% or greater). The “Herbicidal effect Chenopodium album” value in series [13] is 5 (Herbicidal effect/phytotoxicity was 90% or greater).
For `C#CCOc1cc(-c2c(F)n3n(c2=O)CCOCC3)c(Cl)cc1Cl` [Example 1-364], the “Phytotoxicity Corn” value in series [4] is 1 (Herbicidal effect/phytotoxicity was 10% to 30%). Further, in series [5], the “Herbicidal effect Eleocharis acicularis” value is recorded as 5 (Herbicidal effect/phytotoxicity was 90% or greater). Moreover, the “Herbicidal effect Broadleaf weed” value in series [6] was 5 (Herbicidal effect/phytotoxicity was 90% or greater). Also, in series [7], the “Herbicidal effect Cyperus difformis” value is reported as 5 (Herbicidal effect/phytotoxicity was 90% or greater). Besides, the “Herbicidal effect Echinochloa oryzicola” value in series [8] is recorded as 5 (Herbicidal effect/phytotoxicity was 90% or greater). Besides, in [9], the “Herbicidal effect Monochoria vaginalis” value is 5 (Herbicidal effect/phytotoxicity was 90% or greater). The “Herbicidal effect Scirpus juncoides” value in [10] is on record as 5 (Herbicidal effect/phytotoxicity was 90% or greater). In series [11], the “Herbicidal effect Abutilon theophrast” value is 5 (Herbicidal effect/phytotoxicity was 90% or greater). In addition, in series [12], the “Herbicidal effect Amaranthus viridis” value was 5 (Herbicidal effect/phytotoxicity was 90% or greater). Also, the “Herbicidal effect Chenopodium album” value in series [13] is 5 (Herbicidal effect/phytotoxicity was 90% or greater).
Regarding `C=CCOc1cc(-c2c(Cl)n3n(c2=O)CCCC3)c(F)cc1F` [Example 1-101], in series [4], the “Phytotoxicity Corn” value is on record as 3 (Herbicidal effect/phytotoxicity was 50% to 70%). For the same molecule, the “Herbicidal effect Eleocharis acicularis” value in series [5] is listed as 5 (Herbicidal effect/phytotoxicity was 90% or greater). The “Herbicidal effect Broadleaf weed” value in [6] is 5 (Herbicidal effect/phytotoxicity was 90% or greater). Also, in [7], the “Herbicidal effect Cyperus difformis” value is recorded as 5 (Herbicidal effect/phytotoxicity was 90% or greater). Besides, the “Herbicidal effect Echinochloa oryzicola” value in series [8] is on record as 5 (Herbicidal effect/phytotoxicity was 90% or greater). Moreover, the “Herbicidal effect Monochoria vaginalis” value in [9] is 5 (Herbicidal effect/phytotoxicity was 90% or greater). In addition, in [10], the “Herbicidal effect Scirpus juncoides” value was 5 (Herbicidal effect/phytotoxicity was 90% or greater). Also, the “Herbicidal effect Abutilon theophrast” value in [11] is reported as 5 (Herbicidal effect/phytotoxicity was 90% or greater). The “Herbicidal effect Amaranthus viridis” value in series [12] was 5 (Herbicidal effect/phytotoxicity was 90% or greater). The “Herbicidal effect Chenopodium album” value in series [13] is 5 (Herbicidal effect/phytotoxicity was 90% or greater).
As for `CCOc1cc(-c2c(Cl)n3n(c2=O)CCCC3)c(F)cc1Cl` [Example 1-146], the “Phytotoxicity Corn” value in [4] is given as 0 (Herbicidal effect/phytotoxicity was 0% to 10%). Further, the “Herbicidal effect Eleocharis acicularis” value in series [5] is 5 (Herbicidal effect/phytotoxicity was 90% or greater). Also, the “Herbicidal effect Broadleaf weed” value in [6] is 5 (Herbicidal effect/phytotoxicity was 90% or greater). Moreover, in series [7], the “Herbicidal effect Cyperus difformis” value is given as 5 (Herbicidal effect/phytotoxicity was 90% or greater). For the same molecule, the “Herbicidal effect Echinochloa oryzicola” value in series [8] is listed as 5 (Herbicidal effect/phytotoxicity was 90% or greater). In addition, the “Herbicidal effect Monochoria vaginalis” value in [9] is listed as 5 (Herbicidal effect/phytotoxicity was 90% or greater). For the same molecule, the “Herbicidal effect Scirpus juncoides” value in series [10] is reported as 5 (Herbicidal effect/phytotoxicity was 90% or greater). Moreover, the “Herbicidal effect Abutilon theophrast” value in series [11] is recorded as 5 (Herbicidal effect/phytotoxicity was 90% or greater). Moreover, the “Herbicidal effect Amaranthus viridis” value in series [12] is listed as 5 (Herbicidal effect/phytotoxicity was 90% or greater). Moreover, in series [13], the “Herbicidal effect Chenopodium album” value is 5 (Herbicidal effect/phytotoxicity was 90% or greater).
Consider `CC(C)=CCOc1cc(-c2c(Cl)n3n(c2=O)CCCC3)c(F)cc1Cl` [Example 1-219], for which, in series [4], the “Phytotoxicity Corn” value is 2 (Herbicidal effect/phytotoxicity was 30% to 50%). Further, in [5], the “Herbicidal effect Eleocharis acicularis” value is reported as 5 (Herbicidal effect/phytotoxicity was 90% or greater). The “Herbicidal effect Broadleaf weed” value in [6] is given as 5 (Herbicidal effect/phytotoxicity was 90% or greater). In series [7], the “Herbicidal effect Cyperus difformis” value is recorded as 5 (Herbicidal effect/phytotoxicity was 90% or greater). Moreover, in series [8], the “Herbicidal effect Echinochloa oryzicola” value is listed as 5 (Herbicidal effect/phytotoxicity was 90% or greater). Further, the “Herbicidal effect Monochoria vaginalis” value in series [9] is reported as 5 (Herbicidal effect/phytotoxicity was 90% or greater). In addition, in series [10], the “Herbicidal effect Scirpus juncoides” value is given as 5 (Herbicidal effect/phytotoxicity was 90% or greater). Also, the “Herbicidal effect Abutilon theophrast” value in series [11] is on record as 5 (Herbicidal effect/phytotoxicity was 90% or greater). Besides, the “Herbicidal effect Amaranthus viridis” value in series [12] is 5 (Herbicidal effect/phytotoxicity was 90% or greater). Further, in series [13], the “Herbicidal effect Chenopodium album” value is reported as 5 (Herbicidal effect/phytotoxicity was 90% or greater).
For the molecule `CC#CCOc1cc(-c2c(Cl)n3n(c2=O)CCCC3)c(F)cc1F` [Example 1-115], in [4], the “Phytotoxicity Corn” value is 3 (Herbicidal effect/phytotoxicity was 50% to 70%). Moreover, the “Herbicidal effect Eleocharis acicularis” value in series [5] is given as 5 (Herbicidal effect/phytotoxicity was 90% or greater). In series [6], the “Herbicidal effect Broadleaf weed” value is reported as 5 (Herbicidal effect/phytotoxicity was 90% or greater). The “Herbicidal effect Cyperus difformis” value in series [7] was 5 (Herbicidal effect/phytotoxicity was 90% or greater). For the same molecule, the “Herbicidal effect Echinochloa oryzicola” value in series [8] was 5 (Herbicidal effect/phytotoxicity was 90% or greater). Further, the “Herbicidal effect Monochoria vaginalis” value in series [9] is 5 (Herbicidal effect/phytotoxicity was 90% or greater). For the same molecule, in series [10], the “Herbicidal effect Scirpus juncoides” value is on record as 5 (Herbicidal effect/phytotoxicity was 90% or greater). In addition, in series [11], the “Herbicidal effect Abutilon theophrast” value is given as 5 (Herbicidal effect/phytotoxicity was 90% or greater). For the same molecule, in [12], the “Herbicidal effect Amaranthus viridis” value is 5 (Herbicidal effect/phytotoxicity was 90% or greater). Besides, the “Herbicidal effect Chenopodium album” value in series [13] is listed as 5 (Herbicidal effect/phytotoxicity was 90% or greater).
As for `O=c1c(-c2cc(OCC3CCCCC3)c(Cl)cc2F)c(Cl)n2n1CCCC2` [Example 1-188], in series [4], the “Phytotoxicity Corn” value is given as 0 (Herbicidal effect/phytotoxicity was 0% to 10%). The “Herbicidal effect Eleocharis acicularis” value in series [5] was 5 (Herbicidal effect/phytotoxicity was 90% or greater). In addition, the “Herbicidal effect Broadleaf weed” value in series [6] is given as 5 (Herbicidal effect/phytotoxicity was 90% or greater). In addition, the “Herbicidal effect Cyperus difformis” value in [7] was 5 (Herbicidal effect/phytotoxicity was 90% or greater). Also, in series [8], the “Herbicidal effect Echinochloa oryzicola” value is reported as 5 (Herbicidal effect/phytotoxicity was 90% or greater). Moreover, the “Herbicidal effect Monochoria vaginalis” value in series [9] was 5 (Herbicidal effect/phytotoxicity was 90% or greater). The “Herbicidal effect Scirpus juncoides” value in series [10] is listed as 5 (Herbicidal effect/phytotoxicity was 90% or greater). The “Herbicidal effect Abutilon theophrast” value in series [11] is reported as 5 (Herbicidal effect/phytotoxicity was 90% or greater). Besides, the “Herbicidal effect Amaranthus viridis” value in series [12] is given as 5 (Herbicidal effect/phytotoxicity was 90% or greater). For the same molecule, in series [13], the “Herbicidal effect Chenopodium album” value is given as 5 (Herbicidal effect/phytotoxicity was 90% or greater).
